Data reported in patent US20250134877A1, “METHODS OF TREATING CANCER DEPENDENT ON MYC GENE EXPRESSSION” (KARTOS THERAPEUTICS, priority 2021, published 2025).

Key:
[1] = test system: other members of the CD28 family; settings: selectivity; cited from earlier work
[2] = test system: p21 gene expression; assay: Gene expression analysis of PBMC samples from relapsed/refractory myelofibrosis patients: p21; type: in vivo, human; settings: R/R myelofibrosis patients, 120 mg or 240 mg for 7 days or 240 mg for 5 days, C1D1 pre-dose vs C1D5, C1D6/8, FIG. 1
Description: (§1) FIG. 1 illustrates that the compound of Formula (I) induces p21 and represses Myc in relapsed/refractory myelofibrosis (R/R MF) patients. PBMC samples from the patients were used for the gene expression analyses. fdr.q refers to false discovery rate adjusted significance value for change in normalized gene expression. C1D1 refers to Cycle 1, Day 1. C1D5 refers to Cycle 1, Day 5. C1D6/8 refers to Cycle 1, Day 6 or 8.
(§2) Effects of the compound of Formula (I) were investigated on the gene expression of p21 and Myc in the patients of relapsed/refractory myelofibrosis. In the study, The compound of Formula (I) is administered at 120 mg for 7 days for Cohort 1, 240 mg for 7 days for Cohort 2, 240 mg for 7 days for Cohort 3, and 240 mg for 5 days for Cohort 4.
(§3) The peripheral blood mononuclear cell (PBMC) samples were taken from the patients pre-dosing on day 1 of cycle 1, day 5 of cycle 1, day 6 of cycle 1, and day 8 of cycle 1.

[3] = test system: p21 gene expression; assay: Gene expression analysis of PBMC samples from relapsed/refractory AML patients: p21; type: in vivo, human; settings: R/R AML patients, 120, 180, 240 or 360 mg daily for seven days, C1D1 pre-dose vs C1D5, FIG. 2
Description: (§4) FIG. 2 illustrates that the compound of Formula (I) induces p21 and represses Myc in relapsed/refractory acute myeloid leukemia (AML) patients. PBMC samples from the patients were used for the gene expression analyses. C1D1 refers to Cycle 1 Day 1. C1D5 refers to Cycle 1 Day 5.
(§5) Effects of the compound of Formula (I) were investigated on the gene expression of p21 and Myc in the AML patients.
(§6) In dose-escalation phase study, the dosing of the compound of Formula (I) is 120 mg (three patients); 180 mg (2 patients), 240 mg (8 patients), and 360 mg (4 patients) daily for seven days, with different ‘off-treatment’ duration depending on cohort assignments. The peripheral blood mononuclear cell (PBMC) samples were taken from patients pre-dosing on day 1 of cycle 1, and day 5 of cycle 1.

[4] = test system: Myc gene expression; assay: Gene expression analysis of PBMC samples from relapsed/refractory myelofibrosis patients: Myc; type: in vivo, human; settings: R/R myelofibrosis patients, 120 mg or 240 mg for 7 days or 240 mg for 5 days, C1D1 pre-dose vs C1D5, C1D6/8, FIG. 1
Description: as §1, §2, §3

[5] = test system: Myc gene expression; assay: Gene expression analysis of PBMC samples from relapsed/refractory AML patients: Myc; type: in vivo, human; settings: R/R AML patients, 120, 180, 240 or 360 mg daily for seven days, C1D1 pre-dose vs C1D5, FIG. 2
Description: as §4, §5, §6

Row | Molecule | binding to other members of the CD28 family [1] | effect on p21 gene expression [2] | effect on p21 gene expression [3] | effect on Myc gene expression [4] | effect on Myc gene expression [5]
1 | 5C4: fully human IgG4 antibody blocking the PD-1 receptor; 5C4 in WO 2006/121168 and U.S. Pat. No. 8,008,449 [Formula 5C4] | do not bind | – | – | – | –
2 | CC(C)[C@@H](CS(=O)(=O)C(C)C)N1C(=O)[C@@](C)(CC(=O)O)CC(c2cccc(Cl)c2)[C@H]1c1ccc(Cl)cc1 (stereo partly drawn) [Formula (I), 2-((3R,5R,6S)-5-(3-chlorophenyl)-6-(4-chlorophenyl)-1-((S)-1-(isopropylsulfony1)-3-methylbutan-2-y1)-3-methyl-2-oxopiperidin-3-yl) acetic acid] | – | induces | induces | represses | represses
